Biological target: FKBP (FK506 binding protein) and FRB (FKBP-rapamycin binding) protein (Homo sapiens, UniProt P42345+P62942)
Test: Chemically inducible dimerization (FKBP/FRB) protein translocation in GUVs on external rapamycin
Format: biochemical
Details: rapamycin added outside the vesicles
Excerpt: 3A) Schematic of the GUV containing fluorescently-labeled FK506 binding protein (FKBP) and FKBP-rapamycin binding (FRB) proteins. In this embodiment, FKBP peptide is fused to the positively charged myristoylated alanine-rich protein kinase c substrate (MARCKS) domain and binds to the negatively charged phosphatidylserine lipids present at the inner leaflet. The FKBP binding partner, FRB, is luminal. […] The normalized intensity profiles are the intensity traces of the dashed line in each image.
This was achieved by using the chemically inducible dimerization paradigm where FKBP (FK506 binding protein) and FRB (FKBP-rapamycin binding) protein can hetrodimerize in the presence of rapamycin.

FKBP (FK506 binding protein) and FRB (FKBP-rapamycin binding) protein, sequence (P62942 whole entry): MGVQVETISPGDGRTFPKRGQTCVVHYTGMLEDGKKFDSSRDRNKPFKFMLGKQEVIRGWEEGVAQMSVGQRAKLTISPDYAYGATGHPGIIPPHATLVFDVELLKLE
FKBP (FK506 binding protein) and FRB (FKBP-rapamycin binding) protein, sequence (P42345 2012-2144 limits assumed): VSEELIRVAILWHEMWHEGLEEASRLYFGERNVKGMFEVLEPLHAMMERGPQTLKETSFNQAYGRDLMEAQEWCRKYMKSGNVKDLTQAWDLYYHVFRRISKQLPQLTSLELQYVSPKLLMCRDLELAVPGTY

Permeation of the GUV membrane: permeates the vesicles
Structure (SMILES): CO[C@H]1C[C@@H]2CC[C@@H](C)[C@@](O)(O2)C(=O)C(=O)N2CCCC[C@H]2C(=O)O[C@H]([C@H](C)C[C@@H]2CC[C@@H](O)[C@H](OC)C2)CC(=O)[C@H](C)/C=C(\C)[C@@H](O)[C@@H](OC)C(=O)[C@H](C)C[C@H](C)/C=C/C=C/C=C/1C [rapamycin]
